Source: patent publication US20250129096A1, “ANNULATED 2-AMINO-3-CYANO THIOPHENES AND DERIVATIVES FOR THE TREATMENT OF CANCER” (Boehringer Ingelheim Int'l GmbH Corp., priority 2021, published 2025)
≈ marks a conversion by molar mass, not a printed value. Like-named read-outs stand apart in the source and are kept apart here.

Assays:
[1] = target: KRAS G12D Ba/F3 cells (Homo sapiens, UniProt P01116, G12D, cells depend on it); experiment: Ba/F3 proliferation assay, KRAS G12D; type: cell-based; settings: 72 h, AlamarBlue; read-out: KRAS G12D Ba/F3 IC50
KRAS G12D Ba/F3 cells, sequence (P01116 whole entry G12D, canonical isoform): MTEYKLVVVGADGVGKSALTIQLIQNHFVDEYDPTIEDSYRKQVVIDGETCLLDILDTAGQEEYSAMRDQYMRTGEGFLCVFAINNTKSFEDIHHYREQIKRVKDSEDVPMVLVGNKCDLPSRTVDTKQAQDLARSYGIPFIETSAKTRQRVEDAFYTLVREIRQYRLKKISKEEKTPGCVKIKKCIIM
Description: (§1) To generate KRASG12-dependent Ba/F3 models, Ba/F3 cells are transduced with retroviruses containing vectors that harbor KRASG12 isoforms. Platinum-E cells (Cell Biolabs) are used for retrovirus packaging. Retrovirus is added to Ba/F3 cells. To ensure infection, 4 μg/mL polybrene is added and cells are spinfected. […] Cells with an infection efficiency of 10% to 20% are further cultivated and puromycin selection with 1 μg/mL is initiated. As a control, parental Ba/F3 cells are used to show selection status. Selection is considered successful when parental Ba/F3 cells cultures died. To evaluate the transforming potential of KRASG12 mutations, the growth medium is no longer supplemented with IL-3. Ba/F3 cells harboring the empty vector are used as a control. Approximately ten days before conducting the experiments, puromycin is left out. […] All treatments are performed in technical duplicates. […] AlamarBlue™(ThermoFisher), a viability stain, is added and fluorescence measured in the PerkinElmer Envision HTS Multilabel Reader. The raw data are imported into and analyzed with the Boehringer Ingelheim proprietary software MegaLab (curve fitting based on the program PRISM, GraphPad Inc.).

[2] = Metabolic (microsomal) stability assay, HLM; type: in vitro ADME; settings: human liver microsomes, 1 μM test compound, predicted clearance as percent of liver blood flow
Description: The metabolic degradation of the test compound is assayed at 37° C. with pooled liver microsomes (mouse (MLM), rat (RLM) or human (HLM)). The final incubation volume of 48 μL per time point contains TRIS buffer (pH 7.5; 0.1 M), magnesium chloride (6.5 mM), microsomal protein (0.5 mg/mL for mouse/rat, 1 mg/mL for human specimens) and the test compound at a final concentration of 1 μM. Following a short preincubation period at 37° C., the reactions are initiated by addition of 12 μL beta-nicotinamide adenine dinucleotide phosphate, reduced form (NADPH, 10 mM) and terminated by transferring an aliquot into solvent after different time points (0, 5, 15, 30, 60 min). Additionally, the NADPH-independent degradation is monitored in incubations without NADPH, terminated at the last time point by addition of acetonitrile. The quenched incubations are pelleted by centrifugation (4,000 rpm, 15 min). An aliquot of the supernatant is assayed by LC-MS/MS to quantify the concentration of parent compound in the individual samples.
In vitro intrinsic clearance (CLint, in vitro) is calculated from the time course of the disappearance of the test drug during the microsomal incubation. Each plot is fitted to the first-order elimination rate constant as C(t)=C0*exp(−ke*t), where C(t) and C0 are the concentration of unchanged test drug at incubation time t and that at preincubation and ke is the disappearance rate constant of the unchanged drug. Subsequently, CLint, in vitro (μL min^−1·amount protein) values are converted to predicted CLint, in vivo (mL min^−1 kg^−1) from incubation parameters according to the equation CLint, in vivo=CLint, in vitro×(incubation volume (ml)/amount protein (mg))×(amount protein (mg)/g liver tissue)×(liver weight/body wt.). For better across species comparison the predicted clearance is expressed as percent of the liver blood flow [% QH] (mL min^−1 kg^−1) in the individual species. In general, high stability (corresponding to low % QH) of the compounds across species is desired.

[3] = Solubility measurement (DMSO solution precipitation method); type: physicochemical; settings: aqueous buffer, kinetic from dmso stock, ambient temperature
Description: The DMSO solution is diluted with an aqueous medium (McIlvaine buffer with pH=4.5 or 6.8) to a final concentration of 250 μM. After 24 h of shaking at ambient temperature a potentially formed precipitate is removed by filtration. The concentration of the test compound in the filtrate is determined by LC-UV methods by calibrating the signal to the signal of a reference solution with complete dissolution of the test compound in acetonitrile/water (1:1) with known concentration.

[4] = system: AsPC-1 cells (pancreatic cancer, G12D); experiment: AsPC-1 CTG proliferation assay (120 h); type: cell-based; settings: Homo sapiens, ASPC1, CellTiter-Glo
Description: The CTG assay is designed to measure quantitatively the proliferation of AsPC-1 cells (ATCC […]), using the CellTiter Glow Assay Kit (Promega G7571). Cells are grown in RPMI medium (ATCC) supplemented with Fetal Calf Serum (Life Technologies, Gibco BRL, Cat. No. 10270-106). On “day 0” 2000 AsPC-1 cells are seeded in 60 μL RPMI ATCC+10% FCS+ Penstrep in a 384-well plate, flat and clear bottom (Greiner, PNr. 781091). Cells are then incubated in the plates at 37° C. in a CO2 incubator overnight. On day 1, compounds (10 mM stock in DMSO) are added with the ECHO acoustic liquid handler system (Beckman Coulter), including DMSO controls. Plates are incubated for 120 h, and cell viability is measured using CellTiter-Glo luminescent cell viability reagent (Promega product code G7570). Viability (stated as percent of control) is defined as relative luminescence units RLU of each well divided by the RLU of cells in DMSO controls. IC50 values are determined from viability measurements by non-linear regression using a four-parameter model.

[5] = target: KRAS G12V Ba/F3 cells (Homo sapiens, UniProt P01116, G12V, cells depend on it); experiment: Ba/F3 proliferation assay, KRAS G12V; type: cell-based; settings: 72 h, AlamarBlue; read-out: KRAS G12V Ba/F3 IC50
KRAS G12V Ba/F3 cells, sequence (P01116 whole entry G12V): as the sequence (P01116 whole entry G12D, canonical isoform) above, with D12V counted along it
Description: as §1

[6] = McIlvaine buffer pH 4.5, 24 h, read-out: solubility pH 4.5
[7] = McIlvaine buffer pH 6.8, 24 h, read-out: solubility pH 6.8

Row | SMILES | GI50 [1] [µM] | HLM QH [2] [%] | solubility at 24 h [3, 6] [µg/mL] | solubility at 24 h [3, 7] [µg/mL] | IC50 [4] [µM] | GI50 [5] [µM]
1 | C[C@H]1CNCCCN1c1nccc(-c2noc3c2CC(F)(F)CC32CCCc3sc(N)c(C#N)c32)n1 (stereo partly drawn) [IIb-2] | 0.798 | 39 | 53 (≈ 104 µM) | 27 (≈ 52.8 µM) | 5.11 | 0.478
2 | C[C@H](Oc1ccnc(-c2noc3c2CCC[C@@]32CCCc3sc(N)c(C#N)c32)n1)[C@@H]1CCCN1C [IIb-3] | 0.016 | 64 | > 117 | > 120 | 0.65 | 0.025
3 | C[C@H]1CNCCCN1c1nccc(-c2noc3c2CSCC32CCCc3sc(N)c(C#N)c32)n1 (stereo partly drawn) [IIb-4] | 0.174 | – | – | – | 4.13 | 0.138
4 | C[C@H]1CNCCCN1c1nccc(-c2noc3c2OCCC32CCCc3sc(N)c(C#N)c32)n1 (stereo partly drawn) [IIb-7] | 0.123 | <24 | > 103 | > 100 | 2.8 | 0.136
5 | C[C@H](Oc1nccc(-c2noc3c2CCC[C@@]32CCCc3sc(N)c(C#N)c32)n1)[C@@]1(C)CCCN1C [IIe-1] | 0.155 | >88 | > 115 | > 114 | 5.52 | 0.203
6 | C[C@H]1CNCCN1c1nccc(-c2noc3c2CCC[C@@]32CCCc3sc(N)c(C#N)c32)n1 [IIf-1] | – | 29 | – | – | 1.51 | –
7 | CO[C@@H]1C[C@@H]([C@H](C)Oc2nccc(-c3onc4c3CCC[C@@]43CCCc4sc(N)c(C#N)c43)n2)N(C)C1 [Ie-1] | 0.028 | >88 | – | – | 5.48 | 0.029
8 | C[C@H](Oc1nccc(-c2onc3c2CCC[C@@]32CCCc3sc(N)c(C#N)c32)n1)[C@@H]1C[C@@H](F)CN1C [Ie-2] | 0.066 | >88 | > 125 | 41 (≈ 80.6 µM) | 2.56 | 0.106
9 | CCN1[C@H]2C[C@H]2C[C@H]1[C@H](C)Oc1nccc(-c2onc3c2CCC[C@@]32CCCc3sc(N)c(C#N)c32)n1 [Ie-3] | 0.033 | >88 | > 125 | > 123 | 8.03 | 0.084
10 | CC(Oc1nccc(-c2onc3c2CCC[C@@]32CCCc3sc(N)c(C#N)c32)n1)C12CCCN1CCC2 (stereo partly drawn) [Ie-5] | 0.066 | 63 | – | – | 5.86 | 0.092
11 | C[C@H](Oc1nccc(-c2onc3c2CCC[C@@]32CCCc3sc(N)c(C#N)c32)n1)[C@@H]1C[C@@H]2C[C@@H]2N1 [If-2] | 4.67 | – | 89 (≈ 182 µM) | < 1 | > 25 | –
12 | C[C@H](Oc1nccc(-c2onc3c2CCC[C@@]32CCCc3sc(N)c(C#N)c32)n1)[C@@H]1C[C@@H]2C[C@@H]2N1C [Ih-1] | 0.043 | >88 | > 110 | 93 (≈ 185 µM) | 4.21 | 0.094

Second part, the molecule after the results:

Row | GI50 [1] [µM] | HLM QH [2] [%] | solubility at 24 h [3, 6] [µg/mL] | solubility at 24 h [3, 7] [µg/mL] | IC50 [4] [µM] | GI50 [5] [µM] | SMILES
13 | 0.032 | <24 | 92 (≈ 193 µM) | 51 (≈ 107 µM) | 3.62 | – | C[C@H]1CNCCCN1c1nccc(-c2noc3c2CCC[C@@]32CCCc3sc(N)c(C#N)c32)n1 (single isomer, unassigned) [IIb-5]
14 | 0.469 | <24 | 57 (≈ 116 µM) | 32 (≈ 65.4 µM) | 3.57 | 0.337 | CC1Cc2c(-c3ccnc(N4CCCNC[C@@H]4C)n3)noc2C2(CCCc3sc(N)c(C#N)c32)C1 (stereo partly drawn) [IIb-1]
15 | 0.101 | 51 | – | – | 5.97 | – | C[C@@H]1NCCCN(c2nccc(-c3onc4c3CCC[C@@]43CCCc4sc(N)c(C#N)c43)n2)[C@H]1C [Ib-2]
16 | 0.211 | 34 | > 104 | 95 (≈ 199 µM) | > 25 | – | C[C@H]1CNCCCN1c1ncnc(-c2onc3c2CCC[C@@]32CCCc3sc(N)c(C#N)c32)n1 [Ib-4]
17 | 0.027 | >88 | > 117 | > 108 | 3.57 | – | C[C@H]1[C@@H]2CCCN2CCCN1c1nccc(-c2onc3c2CCC[C@@]32CCCc3sc(N)c(C#N)c32)n1 [Id-1]
18 | 0.077 | 25 | – | – | 6.68 | 0.098 | C[C@H]1CNCCCN1c1nccc(-c2onc3c2CCC[C@@]32CCCc3sc(N)c(C#N)c32)n1 [If-1]
